Converted amounts (≈) assume the structure as drawn.
Experiments:
[1] = Evaluation of solubility: concentration of hardly soluble polyphenol dissolved in ion-exchanged water, quantified by HPLC; type: physicochemical; settings: sample added to ion-exchanged water at 1 g/L, shaken at 25° C. for 5 minutes, filtered 0.8 μm
Procedure: Hardly soluble polyphenols were each quantified by a gradient method using a high-performance liquid chromatograph manufactured by Hitachi, Ltd. with a column Cadenza CD-C18 (4.6 mmφ×150 mm, 3 μm) manufactured by Imtakt Corporation at a column temperature of 40° C.
A mobile phase, solution A, was 0.05 mol/L acetic acid aqueous solution, and the other mobile phase, solution B, was acetonitrile. Flow rate was 1.0 mL/min. Gradient conditions are shown below.
In addition, ellagic acid was quantified using the same device except that only gradient conditions were set as shown below.
The sample injection volume was 10 μL, and quantification was carried out on the basis of an absorbance at a wavelength of 254 nm.
A sample was added to ion-exchanged water at 1 g/L, and the resultant was shaken at 25° C. for 5 minutes. After that, the resultant was filtered with a cellulose acetate filter having a pore size of 0.8 μm, and the concentration of a hardly soluble polyphenol dissolved was measured by the above-mentioned quantification method.

[2] = cited from earlier work
[3] = X-ray diffraction analysis: crystallinity degree of ellagic acid; type: physicochemical; settings: powder X-ray diffraction, FIG. 1 to FIG. 3
Procedure: The crystallinity degree of the hardly soluble polyphenol may be calculated by the following method. First, diffraction intensity values determined by an X-ray diffraction method are subjected to peak separation into a crystalline diffraction line and an amorphous halo through profile fitting without considering effects of incoherent scattering, a lattice defect, and the like. Next, the crystallinity degree of a hardly soluble polyphenol is calculated by the following calculation equation (2) from the resultant integrated intensities of the respective peaks: Crystallinity degree (%) of hardly soluble polyphenol=[ΣIα/(ΣIα+ΣIam)]×100 (2) where ΣIα represents a sum of integrated intensities of respective peaks in a crystalline diffraction line, and ΣIam represents a sum of integrated intensities of respective peaks in a diffraction line of an amorphous part.
An X-ray diffraction intensity was measured using “Mini Flex II” manufactured by Rigaku Corporation under the conditions of: an X-ray source of Cu/Kα-radiation; a tube voltage of 30 kV; a tube current of 15 mA; a measurement range of from 5° to 40° in terms of a diffraction angle; and an X-ray scan speed of 10°/min. A sample for measurement was prepared by compressing a pellet having an area of 400 mm^2 and a thickness of 0.5 mm.

Compound: O.O.O=c1c(O)c(-c2ccc(O)c(O)c2)oc2cc(O)cc(O)c12 [Comparative Example 5, Quercetin dihydrate]
- Amount of quercetin dissolved [1]: 0.005 g/L

Compound: O=C1C[C@@H](c2ccc(O)cc2)Oc2cc(O)cc(O)c21 [Comparative Example 12, Naringenin]
- Amount of naringenin dissolved [1]: 0.008 g/L

Compound: c1cc2c(cc1[C@H]1OC[C@H]3[C@@H]1CO[C@@H]3c1ccc3c(c1)OCO3)OCO2 [Comparative Example 9, Sesamin]
- Amount of sesamin dissolved [1]: 0.0001 g/L

Compound: COc1cc(/C=C/C(=O)CC(=O)/C=C/c2ccc(O)c(OC)c2)ccc1O [Comparative Example 7, Curcumin]
- Amount of curcumin dissolved [1]: 0.001 g/L

Compound: O=c1oc2c(O)c(O)cc3c(=O)oc4c(O)c(O)cc1c4c23 [Comparative Example 1, Ellagic acid]
- solubility in water (25° C.) [2]: 5 µg/mL (≈ 16.5 µM)
- Amount of ellagic acid dissolved [1]: 0.0053 g/L
- crystallinity degree of ellagic acid [3]: 87%

Compound: Oc1ccc(C=Cc2cc(O)cc(O)c2)cc1 [Comparative Example 11, Resveratrol]
- Amount of resveratrol dissolved [1]: 0.03 g/L

Compound: COc1ccc(-c2cc(=O)c3c(OC)c(OC)c(OC)c(OC)c3o2)cc1OC [Comparative Example 8, Nobiletin]
- Amount of nobiletin dissolved [1]: 0.007 g/L
